From US20240398795A1, “COMBINATION THERAPIES USING PRMT5 INHIBITORS FOR THE TREATMENT OF CANCER” (MIRATI THERAPEUTICS, INC., priority 2021, published 2024)

Key:
Assay type in all cases: in vivo, mice
HCC4006 xenograft tumors = assay: HCC4006 xenograft tumor volume study; conditions: n=5, MRTX1719 100 mg/kg PO QD, Docetaxel 10 mg/kg IP Q7D, combination 100 mg PO QD + 10 mg/kg IP Q7D
Protocol: (§1) Immunodeficient female nu/nu or BALBC/Nude mice were subcutaneously implanted with 3×10^6 to 1×10^7 human derived cancer cells depending on the cell line xenograft model. Tumors were measured using calipers until they reached approximately 100-150 mm^3. […] Tumor volume was measured twice a week (n=5/treatment group). Average tumor volume and standard error of the mean was calculated and plotted at each study day in GraphPad.
(§2) This example was carried out according to the study procedure described above. The PRMT5 inhibitor was MRTX1719 administered at 100 mg/kg once a day (QD). MRTX1719 is (2M)-2-(4-(4-(aminomethyl)-1-oxo-1,2-dihydrophthalazin-6-yl)-1-methyl-1H-pyrazol-5-yl)-4-chloro-6-cyclopropoxy-3-fluorobenzonitrile, disclosed as Example 16-8 at p. 307 of the International patent publication No. WO 2021/050915 A1, published 18 Mar. 2021, incorporated by reference in its entirety.
Substantially the same procedure as Example 1 was repeated except with mice bearing HCC4006 xenograft tumors.

LU99 xenograft tumors = assay: LU99 xenograft tumor volume study; conditions: n=5, MRTX1719 50 mg/kg PO QD, Docetaxel 15 mg/kg IP Q7D, combination 50 mg PO QD + 15 mg/kg IP Q7D
Protocol: as §1
as §2, with “The PRMT5 inhibitor was MRTX1719 administered at 100 mg/kg once a day (QD).” left out
Substantially the same procedure of Example 1 was repeated except with mice bearing LU99 xenograft tumors.

H1650 xenograft tumors = assay: NCI-H1650 xenograft tumor volume study; conditions: n=5, MRTX1719 100 mg/kg PO QD, Docetaxel 10 mg/kg IP Q7D, combination 100 mg/kg PO QD + 10 mg/kg IP Q7D
Protocol: as §1, §2

A549 xenograft tumors = assay: A549 xenograft tumor volume study; conditions: n=5, MRTX1719 100 mg/kg PO QD, Docetaxel 15 mg/kg IP Q7D, combination 100 mg PO QD + 15 mg/kg IP Q7D
Protocol: as §1, §2
Substantially the same procedure as Example 1 was repeated except with mice bearing A549 xenograft tumors.

SW1573 xenograft tumors = assay: SW1573 xenograft tumor volume study; conditions: n=5, MRTX1719 50 mg/kg PO QD, Docetaxel 15 mg/kg IP Q7D, combination 50 mg PO QD + 15 mg/kg IP Q7D
Protocol: as §1
as §2, with “The PRMT5 inhibitor was MRTX1719 administered at 100 mg/kg once a day (QD).” left out
Substantially the same procedure as Example 1 was repeated except with mice bearing SW1573 xenograft tumors.

[1] = system: NCI-H2228 xenograft tumors; assay: NCI-H2228 xenograft tumor volume study; conditions: n=5, MRTX1719 100 mg/kg PO QD, Docetaxel 10 mg/kg IP Q7D, combination 100 mg PO QD + 10 mg/kg IP Q7D
Protocol: as §1, §2
Substantially the same procedure as Example 1 was repeated except with mice bearing NCI-H2228 xenograft tumors.

KP4 xenograft tumors = assay: KP4 xenograft tumor volume study; conditions: n=5, Docetaxel 15 mg/kg IP Q7D, combination 100 mg PO QD + 15 mg/kg IP Q7D
Protocol: as §1, §2
Substantially the same procedure of Example 1 was repeated except with mice bearing KP4 xenograft tumors.

[2] = system: MIAPaCa-2 xenograft tumors; assay: MIAPaCa-2 xenograft tumor volume study; conditions: n=5, MRTX1719 100 mg/kg PO QD, Docetaxel 15 mg/kg IP Q7D, combination 100 mg PO QD + 15 mg/kg IP Q7D
Protocol: as §1
This example was carried out according to the study procedure described above. The PRMT5 inhibitor was MRTX1719 administered at 100 mg/kg once a day (QD). […] 307 of the International patent publication No. WO 2021/050915 A1, published 18 Mar. 2021, incorporated by reference in its entirety.
Substantially the same procedure of Example 1 was repeated except with mice bearing MIAPaCa-2 xenograft tumors.

For `CC(=O)O[C@@]12CO[C@@H]1C[C@H](O)[C@@]1(C)C(=O)[C@H](O)C3=C(C)[C@@H](OC(=O)[C@H](O)[C@@H](NC(=O)OC(C)(C)C)c4ccccc4)C[C@@](O)([C@@H](OC(=O)c4ccccc4)[C@H]21)C3(C)C` [Docetaxel, docetaxel], the “Tumor Volume, Mean” value (HCC4006 xenograft tumors; Day 0) was 126 mm^3, the “Tumor Volume, Mean” value (HCC4006 xenograft tumors; Day 2) was 151 mm^3 and the “Tumor Volume, Mean” value (HCC4006 xenograft tumors; Day 5) was 139 mm^3. For the same compound, the “Tumor Volume, Mean” value (HCC4006 xenograft tumors; Day 9) was 140 mm^3, the “Tumor Volume, Mean” value (HCC4006 xenograft tumors; Day 12) was 150 mm^3 and the “Tumor Volume, Mean” value (HCC4006 xenograft tumors; Day 16) was 143 mm^3. For the same compound, the “Tumor Volume, Mean” value (HCC4006 xenograft tumors; Day 20) was 137 mm^3, the “Tumor Volume, Mean” value (LU99 xenograft tumors; Day 0) was 153 mm^3 and the “Tumor Volume, Mean” value (LU99 xenograft tumors; Day 5) was 184 mm^3. For the same compound, the “Tumor Volume, Mean” value (LU99 xenograft tumors; Day 8) was 299 mm^3, the “Tumor Volume, Mean” value (LU99 xenograft tumors; Day 12) was 459 mm^3 and the “Tumor Volume, Mean” value (LU99 xenograft tumors; Day 15) was 757 mm^3. The “Tumor Volume, Mean” value (LU99 xenograft tumors; Day 20) was 1057 mm^3, the “Tumor Volume, Mean” value (LU99 xenograft tumors; Day 22) was 1255 mm^3 and the “Tumor Volume, Mean” value (LU99 xenograft tumors; Day 26) was 1722 mm^3. For the same compound, the “Tumor Volume, Mean” value (H1650 xenograft tumors; Day 0) was 147 mm^3, the “Tumor Volume, Mean” value (H1650 xenograft tumors; Day 3) was 291 mm^3 and the “Tumor Volume, Mean” value (H1650 xenograft tumors; Day 7) was 425 mm^3. The “Tumor Volume, Mean” value (H1650 xenograft tumors; Day 10) was 660 mm^3, the “Tumor Volume, Mean” value (H1650 xenograft tumors; Day 14) was 710 mm^3 and the “Tumor Volume, Mean” value (H1650 xenograft tumors; Day 17) was 770 mm^3. For the same compound, the “Tumor Volume, Mean” value (H1650 xenograft tumors; Day 20) was 826 mm^3, the “Tumor Volume, Mean” value (A549 xenograft tumors; Day 1) was 118 mm^3 and the “Tumor Volume, Mean” value (A549 xenograft tumors; Day 5) was 128 mm^3. For the same compound, the “Tumor Volume, Mean” value (A549 xenograft tumors; Day 8) was 156 mm^3, the “Tumor Volume, Mean” value (A549 xenograft tumors; Day 12) was 160 mm^3 and the “Tumor Volume, Mean” value (A549 xenograft tumors; Day 15) was 169 mm^3. For the same compound, the “Tumor Volume, Mean” value (A549 xenograft tumors; Day 19) was 167 mm^3, the “Tumor Volume, Mean” value (A549 xenograft tumors; Day 22) was 163 mm^3 and the “Tumor Volume, Mean” value (A549 xenograft tumors; Day 26) was 162 mm^3. The “Tumor Volume, Mean” value (A549 xenograft tumors; Day 29) was 189 mm^3, the “Tumor Volume, Mean” value (A549 xenograft tumors; Day 34) was 239 mm^3 and the “Tumor Volume, Mean” value (SW1573 xenograft tumors; Day 0) was 141 mm^3. The “Tumor Volume, Mean” value (SW1573 xenograft tumors; Day 3) was 148 mm^3, the “Tumor Volume, Mean” value (SW1573 xenograft tumors; Day 8) was 191 mm^3 and the “Tumor Volume, Mean” value (SW1573 xenograft tumors; Day 10) was 231 mm^3. For the same compound, the “Tumor Volume, Mean” value (SW1573 xenograft tumors; Day 14) was 281 mm^3, the “Tumor Volume, Mean” value (SW1573 xenograft tumors; Day 17) was 302 mm^3 and the “Tumor Volume, Mean” value (SW1573 xenograft tumors; Day 21) was 352 mm^3. The “Tumor Volume, Mean” value ([1]; Day 0) was 121 mm^3, the “Tumor Volume, Mean” value ([1]; Day 3) was 100 mm^3 and the “Tumor Volume, Mean” value ([1]; Day 6) was 73 mm^3. The “Tumor Volume, Mean” value ([1]; Day 9) was 76 mm^3, the “Tumor Volume, Mean” value ([1]; Day 13) was 68 mm^3 and the “Tumor Volume, Mean” value ([1]; Day 16) was 42 mm^3. The “Tumor Volume, Mean” value ([1]; Day 20) was 15 mm^3, the “Tumor Volume, Mean” value ([1]; Day 23) was 10 mm^3 and the “Tumor Volume, Mean” value ([1]; Day 27) was 12 mm^3. The “Tumor Volume, Mean” value (KP4 xenograft tumors; Day 0, MRTX1719 100 mg/kg PO QD) was 144 mm^3, the “Tumor Volume, Mean” value (KP4 xenograft tumors; Day 5, MRTX1719 100 mg/kg PO QD) was 121 mm^3 and the “Tumor Volume, Mean” value (KP4 xenograft tumors; Day 7, MRTX1719 100 mg/kg PO QD) was 105 mm^3. For the same compound, the “Tumor Volume, Mean” value (KP4 xenograft tumors; Day 11, MRTX1719 100 mg/kg PO QD) was 90 mm^3, the “Tumor Volume, Mean” value (KP4 xenograft tumors; Day 14, MRTX1719 100 mg/kg PO QD) was 82 mm^3 and the “Tumor Volume, Mean” value (KP4 xenograft tumors; Day 19, MRTX1719 100 mg/kg PO QD) was 126 mm^3. The “Tumor Volume, Mean” value (KP4 xenograft tumors; Day 21, MRTX1719 100 mg/kg PO QD) was 272 mm^3, the “Tumor Volume, Mean” value (KP4 xenograft tumors; Day 25) was 482 mm^3 and the “Tumor Volume, Mean” value (KP4 xenograft tumors; Day 28) was 592 mm^3. The “Tumor Volume, Mean” value (KP4 xenograft tumors; Day 32) was 785 mm^3, the “Tumor Volume, Mean” value (KP4 xenograft tumors; Day 35) was 895 mm^3 and the “Tumor Volume, Mean” value ([2]; Day 1) was 133 mm^3. For the same compound, the “Tumor Volume, Mean” value ([2]; Day 5) was 187 mm^3, the “Tumor Volume, Mean” value ([2]; Day 13) was 268 mm^3 and the “Tumor Volume, Mean” value ([2]; Day 16) was 315 mm^3. The “Tumor Volume, Mean” value ([2]; Day 19) was 375 mm^3 and the “Tumor Volume, Mean” value ([2]; Day 22) was 415 mm^3.
